Experiment [1] relates to TC71 Ewing sarcoma viability, CellTiter-Glo ATP, 72 h. Kind of experiment: killing of EWS/Fli1-dependent TC71 cells, confirmation, cell-based, luminescence, retest at dose, dry powder (AID 743477).
Experiment in experiment [2]: as above
The following applies: TC71 Ewing sarcoma viability, CellTiter-Glo ATP, 72 h.

The structures appear in SMILES notation. The source made the active and inactive calls.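 How the source made its calls: active means fitted curve drops to -35% activity change at a dose no higher than twice the top valid tested dose; inconclusive means no clear call, values can overlap the other calls; inactive means the rest, including effects opposite to the expected drop.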 Where only a bound is given, the exact number is not on record here.

For the molecule `N#CC1=C(N)Oc2cc(N)ccc2C1c1ccc2ccccc2c1` (centres undefined), the AC35 in experiment [1] is 11900 nM. On the same count and under the same terms, with `Cc1c([C@H](C(Cl)Cl)[C@H](O)[C@H]2C[C@H](C)C(=O)O2)ccc2c1C(=O)[C@H]1[C@H]2C[C@@H](Br)[C@@]23O[C@@H](CO[C@H]2O)C[C@]13C` the figure was less than 50 nM; with `Nc1ccn([C@@H]2O[C@H](CO)[C@H](O)C2O)c(=O)n1` (some centres undefined), 585 nM; with `CC1(C)CC(c2nc(-c3ccc4ccc(-c5ccccc5)nc4c3)c3c(N)nccn23)C1`, 4500 nM. For the molecule `Cc1ccc([N+](=O)[O-])cc1S(=O)(=O)N(C)C`, the AC35 in experiment [1] is 7950 nM.

For `Clc1ccc(-c2cnc3ccc(-c4ccccc4)cn23)cc1`, the activity change, negative = cytotoxicity in experiment [2] (at 6 µM (top of the series)) is -1.71% (inactive). Regarding `COc1ccc(S(=O)(=O)N2CC[C@@H]3[C@@H](CO)Nc4ccc(-c5ccc(C#N)cc5)cc4[C@@H]32)cc1`, the AC35 in experiment [1] was 3780 nM. As for `Cc1cc(Nc2cc(N3CCN(C)CC3)nc(Sc3ccc(NC(=O)C4CC4)cc3)n2)n[nH]1`, in experiment [1], the AC35 was 2150 nM. Still for that read-out and setting: the figure for `CC[C@]1(O)CC2CN(CCc3c([nH]c4ccccc34)[C@@](C(=O)OC)(c3cc4c(cc3OC)N(C=O)[C@H]3[C@@](O)(C(=O)OC)[C@H](OC(C)=O)[C@]5(CC)C=CCN6CC[C@]43[C@@H]65)C2)C1` (some centres undefined) is less than 1.5 nM; for `N#Cc1ccc(-c2ccc3c(c2)[C@H]2[C@H](CCN2S(=O)(=O)c2cccc(F)c2)[C@@H](CO)N3)cc1` it is 7800 nM; for `COc1ccc(S(=O)(=O)N2CC[C@@H]3[C@@H](CO)Nc4ccc(-c5cccc(C#N)c5)cc4[C@@H]32)cc1` it is 4140 nM. On the same count and under the same terms, with `COc1ccc(C2=Nn3c(nnc3-c3ccccc3OC)SC2)cc1OC` the figure was 61.3 nM; with `COc1cccc(S(=O)(=O)N2CC[C@@H]3[C@@H](CO)Nc4ccc(-c5ccc(C#N)cc5)cc4[C@@H]32)c1`, 21000 nM; with `CN1c2ccc(-c3ccc(C#N)cc3)cc2[C@H]2[C@H](CCN2S(=O)(=O)c2cccc(F)c2)[C@H]1CO`, 3760 nM. Still for that read-out and setting: the figure for `CC[C@@]1(O)C(=O)OCc2c1cc1n(c2=O)Cc2cc3c(CN(C)C)c(O)ccc3nc2-1` is 29 nM. Regarding `COc1ccc(CNc2nc(N3CCC[C@H]3CO)ncc2C(=O)NCc2ncccn2)cc1Cl`, the activity change, negative = cytotoxicity in experiment [2] (at 26 µM (top of the series)) is -6.81% (inactive). Turning to `COc1cccc2c1C(=O)c1c(O)c3c(c(O)c1C2=O)C[C@@](O)(C(=O)CO)C[C@@H]3O[C@H]1C[C@H](N)[C@H](O)[C@H](C)O1`, in experiment [1], the AC35 was less than 50 nM.

As for `COc1ccc(C2CNC(=O)C2)cc1OC1CCCC1` (centres undefined), the activity change, negative = cytotoxicity in experiment [2] (at 26 µM (top of the series)) was 1.67% (inactive). Consider `N#CC1=C(N)Oc2cc(N)ccc2C1c1cccc(Br)c1` (centres undefined), for which the AC35 in experiment [1] was 183 nM.

As for `CC(C)N1c2ccccc2C(c2ccc(F)cc2)C1/C=C/C(O)CC(O)CC(=O)O` (centres undefined), the AC35 in experiment [1] is 2590 nM.

Consider `COc1cc([C@@H]2c3cc4c(cc3[C@@H](O[C@@H]3O[C@@H]5CO[C@@H](C)O[C@H]5[C@H](O)[C@H]3O)[C@H]3COC(=O)[C@H]23)OCO4)cc(OC)c1O`, for which, in experiment [1], the AC35 is 577 nM. In the case of `COc1ccc(C2=Nn3c(nnc3-c3ccccc3F)SC2)cc1OC`, the AC35 in experiment [1] was 3340 nM. On the same count and under the same terms, with `Nc1ncnc2c1c(-c1cccc(OCc3ccccc3)c1)cn2C1CC(CN2CCCC2)C1` (centres undefined) the figure was 10500 nM. Regarding `COc1ccc(NC(=O)Nc2ccc3c(c2)C(=O)N([C@@H](C)CO)C[C@H](C)[C@H](CN(C)Cc2ccc4c(c2)OCO4)O3)cc1`, the activity change, negative = cytotoxicity in experiment [2] (at 12 µM (top of the series)) was -31.5% (inactive). Regarding `Cc1ccc(C2C(C#N)=C(N)Oc3cc(N)ccc32)cc1` (centres undefined), in experiment [2] (at 26 µM (top of the series)), the activity change, negative = cytotoxicity is -0.007% (inactive). As for `Clc1ccccc1-c1nnc2n1N=C(c1ccc3c(c1)OCO3)CS2`, the AC35 in experiment [1] was 411 nM.

In the case of `Cc1ccc(S(=O)(=O)N2CC[C@@H]3[C@@H](CO)Nc4ccc(-c5ccc(C#N)cc5)cc4[C@@H]32)cc1`, the AC35 in experiment [1] is 18600 nM. Take `O=C(Cc1ccc(-c2ccc(OCCN3CCOCC3)cc2)cn1)NCc1ccccc1`: the AC35 in experiment [1] was less than 23.5 nM. The same measure, in the same setting: with `CCc1c2c(nc3ccc(O)cc13)-c1cc3c(c(=O)n1C2)COC(=O)C3(O)CC` (centres undefined) the figure was 1.99 nM. As for `COc1ccccc1C1C(C#N)=C(N)Oc2cc(N)ccc21` (centres undefined), the activity change, negative = cytotoxicity in experiment [2] (at 26 µM (top of the series)) is -24.3% (inactive). Take `Cc1cccc(C2C(C#N)=C(N)Oc3cc(N)ccc32)c1` (centres undefined): in experiment [1], the AC35 was 689 nM. As to `COc1ccc(-c2ccc3c(c2)[C@H]2[C@H](CCN2S(=O)(=O)c2ccc(OC)cc2)[C@@H](CO)N3)cc1`, in experiment [1], the AC35 was 3720 nM. The same measure, in the same setting: with `N#CC1=C(N)Oc2cc3c(cc2C1c1cccc(Br)c1)OCO3` (centres undefined) the figure was 49.7 nM; with `CCCCc1ccc2nc(NC(=O)OC)[nH]c2c1`, less than 50 nM; with `CN1CCN(CCOc2cc(OC3CCOCC3)c3c(Nc4c(Cl)ccc5c4OCO5)ncnc3c2)CC1`, 21200 nM. Regarding `CCN(CCO)CCCOc1ccc2c(Nc3cc(CC(=O)Nc4cccc(F)c4)[nH]n3)ncnc2c1`, in experiment [2] (at 1.6 µM (top of the series)), the activity change, negative = cytotoxicity is -35.4% (inactive).

On to `COc1cccc(C2C(C#N)=C(N)Oc3cc(N)ccc32)c1` (centres undefined), for which the AC35 in experiment [1] was 571 nM.

On to `COc1ccc(-c2ccc3c(c2)[C@H]2[C@H](CCN2S(=O)(=O)c2ccc(OC)cc2)[C@@H](CO)N3C)cc1`, for which the AC35 in experiment [1] was 3190 nM.

For `COc1ccccc1-c1nnc2n1N=C(c1ccc3c(c1)OCO3)CS2`, in experiment [1], the AC35 is 20.7 nM.

The values above are taken from PubChem BioAssay AID743477 (Broad Institute, 2014).
